Source: patent US20110098241A1, “RAPAMYCIN ANALOGS AS ANTI-CANCER AGENTS” (PONIARD PHARMACEUTICALS, INC., priority 2008, published 2011)

Biological target: T1, mTOR (UniProt P42346+P62942)
T1 construct: purchased Calbiochem CBA055
Assay: mTOR Assay Screening Protocol (K-LISA mTOR Activity Kit, inhibitor with FKBP12)
Format: biochemical
Conditions: mTOR Standard pre-incubated with inhibitor and FKBP12 (35-37 ug/ml); p70S6K-T389 phosphorylation ELISA, absorbance at 450 nm
Experimental: mTOR Assay Screening Protocol
Kit: Calbiochem Cat. No. CBA055: K-LISA mTOR Activity Kit
The following table provides reagent preparation instructions to obtain the volume of Working Solutions (WS) required for 10 wells. Volumes can be scaled to process more samples and provide overage for pipetting error.
Reagent Volume (per 10-well strip) Composition: mTOR Substrate WS: 1 ml Dilution factor: 1:400 FKBP12: Sigma F5398 FK-Binding Protein human, recombinant, expressed in Escherichia coli
A. Protocol for mTOR Kinase Activity and Inhibitor Screening: 1. Remove the required number of strips from the Glutathione-Coated 96-Well Plate and place them in the 96-well frame. 2. Add 100 μl mTOR Substrate WS to each well and incubate for 1 h at room temperature. 3. When performing inhibitor screening/testing, pre-incubate 50 μl mTOR Standard (from step 2) with test inhibitor or wortmannin in a separate tube on ice for 20 min (for example 50 μl mTOR Standard with 1 μl Woltmannin, 50×). This pre-incubation can be carried out during the incubation in step 2. • For inhibitor testing: weigh out inhibitor and resuspend in DMSO to a concentration of 5 mM prior to addition to assay • Test concentrations for inhibitors in assay ranged from 10 uM-0.0048 uM (final concentrations) • Inhibitor reaction contained: mTOR Standard, inhibitor (at indicated concentration) and FKBP12 (at 35-37 ug/ml) • Dilutions of inhibitors made in TBS • Controls for assay include: mTOR Standard only, mTOR Substrate only (blank), FKBP12+mTOR Standard (no inhibitor), inhibitor compound+mTOR Standard (no FKBP12), 4. Aspirate contents of the wells and wash each well of the Glutathione-Coated 96-Well Plate with 200 μl TBS. Empty the contents of the wells into the sink and dry the wells by tapping the inverted plate on paper towels. Repeat for a total of 3 washes. 5. Add the following components to each well in the specified order: […]
mTOR Standard or mTOR Sample* (diluted to assay range with phosphate-free buffer or water): 50 μl 2× Kinase Assay Buffer WS: 50 μl
*Pre-incubated with inhibitor in step 3 or without inhibitor 6. Cover the plate with the Plate Sealer, mix with a plate shaker or equivalent for 30 seconds, and incubate for 30 minutes at 30° C. 7. Stop the kinase reaction by adding 10 μl Kinase Stop Solution to each well. (Reaction may also be stopped simply by discarding the contents of the wells). 8. Aspirate the contents of each well and wash with 200 μl Plate Wash (1×). Gently agitate the plate using a plate shaker or equivalent for 5 min. Empty the contents of the wells into the sink and dry the wells by tapping the inverted plate on paper towels. Wash the plate 2 more times without shaking the plate. 9. Add 100 μl Anti-p70S6K-T389 WS to each well, cover the plate with the Plate Sealer, and incubate 1 h at room temperature. 10. Wash the plate 4 times as outlined in step 8 without shaking the plate. 11. Add 100 μl HRP-Antibody Conjugate WS to each well, cover the plate with the Plate Sealer, and incubate 1 h at room temperature. 12. Wash the plate as outlined in step 10. 13. Add 100 μl TMB Substrate to each well, cover the plate with the Plate Sealer, and incubate 5-20 min at room temperature. 14. […] 15. Analyze data using Microsoft Excel and GraphPad Prism software.

T1 sequence (P62942 2-108 limits assumed, other chains not shown): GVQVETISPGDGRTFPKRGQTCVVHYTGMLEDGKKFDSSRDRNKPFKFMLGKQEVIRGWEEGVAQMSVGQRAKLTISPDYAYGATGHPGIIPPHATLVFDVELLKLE

Structure (SMILES)	IC50
CO[C@H]1C[C@@H]2CC[C@@H](C)[C@@](O)(O2)C(=O)C(=O)N2CCCC[C@H]2C(=O)O[C@H]([C@H](C)C[C@@H]2CC[C@@H](OCCOC[Si](C)(C)C)[C@H](OC)C2)CC(=O)[C@H](C)/C=C(\C)[C@@H](O)[C@@H](OC)C(=O)[C@H](C)C[C@H](C)/C=C/C=C/C=C/1C [Example 12, 42-O-[2-(Trimethylsilan-methoxy)-ethyl]-rapamycin]	30 nM
CO[C@H]1C[C@@H]2CC[C@@H](C)[C@@](O)(O2)C(=O)C(=O)N2CCCC[C@H]2C(=O)O[C@H]([C@H](C)C[C@@H]2CC[C@@H](OCCCS(=O)(=O)N3CCOCC3)[C@H](OC)C2)CC(=O)[C@H](C)/C=C(\C)[C@@H](O)[C@@H](OC)C(=O)[C@H](C)C[C@H](C)/C=C/C=C/C=C/1C [Example 17, 42-O-[3-(Morpholinosulfonyl)propyl]-rapamycin]	140 nM
CO[C@H]1C[C@@H]2CC[C@@H](C)[C@@](O)(O2)C(=O)C(=O)N2CCCC[C@H]2C(=O)O[C@H]([C@H](C)C[C@@H]2CC[C@@H](OC[Si](C)(C)C)[C@H](OC)C2)CC(=O)[C@H](C)/C=C(\C)[C@@H](O)[C@@H](OC)C(=O)[C@H](C)C[C@H](C)/C=C/C=C/C=C/1C [Example 11, 42-O-[Trimethylsilyl-methyl]-rapamycin]	2300 nM
CO[C@H]1C[C@@H]2CC[C@@H](C)[C@@](O)(O2)C(=O)C(=O)N2CCCC[C@H]2C(=O)O[C@H]([C@H](C)C[C@@H]2CC[C@@H](OC(=O)CN3CCC(O)CC3)[C@H](OC)C2)CC(=O)[C@H](C)/C=C(\C)[C@@H](O)[C@@H](OC)C(=O)[C@H](C)C[C@H](C)/C=C/C=C/C=C/1C [Example 8, 42-O-[2-(4-Hydroxypiperidin-1-yl)acetyl]-rapamycin]	70 nM
CO[C@H]1C[C@@H]2CC[C@@H](C)[C@@](O)(O2)C(=O)C(=O)N2CCCC[C@H]2C(=O)O[C@H]([C@H](C)C[C@@H]2CC[C@@H](OC(=O)CN3CCC(CCO)CC3)[C@H](OC)C2)CC(=O)[C@H](C)/C=C(\C)[C@@H](O)[C@@H](OC)C(=O)[C@H](C)C[C@H](C)/C=C/C=C/C=C/1C [Example 13, 42-O-[2-(4-(2-Hydroxyethyl)piperidin-1-yl)acetyl]rapamycin]	70 nM
CO[C@H]1C[C@@H]2CC[C@@H](C)[C@@](O)(O2)C(=O)C(=O)N2CCCC[C@H]2C(=O)O[C@H]([C@H](C)C[C@@H]2CC[C@@H](OC(=O)NS(=O)(=O)N3CC[C@@H](O)C3)[C@H](OC)C2)CC(=O)[C@H](C)/C=C(\C)[C@@H](O)[C@@H](OC)C(=O)[C@H](C)C[C@H](C)/C=C/C=C/C=C/1C [Example 4, 42-O—[(R)-3-hydroxypyrrolidin-1-ylsulfonylcarbamyl]-rapamyein]	10 nM
CO[C@H]1C[C@@H]2CC[C@@H](C)[C@@](O)(O2)C(=O)C(=O)N2CCCC[C@H]2C(=O)O[C@H]([C@H](C)C[C@@H]2CC[C@@H](OC(=O)NS(=O)(=O)N3CCOCC3)[C@H](OC)C2)CC(=O)[C@H](C)/C=C(\C)[C@@H](O)[C@@H](OC)C(=O)[C@H](C)C[C@H](C)/C=C/C=C/C=C/1C [Example 1, 42-O-[Morpholinosulfonylcarbamyl]-rapamycin]	10 nM
CO[C@H]1C[C@@H]2CC[C@@H](C)[C@@](O)(O2)C(=O)C(=O)N2CCCC[C@H]2C(=O)O[C@H]([C@H](C)C[C@@H]2CC[C@@H](OC(=O)NS(=O)(=O)N(CCO)CCO)[C@H](OC)C2)CC(=O)[C@H](C)/C=C(\C)[C@@H](O)[C@@H](OC)C(=O)[C@H](C)C[C@H](C)/C=C/C=C/C=C/1C [Example 3, 42-O—[N,N-Bis(2-hydroxyethyl)aminosulfonylcarbamyl]-rapamycin]	110 nM

Further lines, results first:

IC50	Structure (SMILES)
300 nM	CO[C@H]1C[C@@H]2CC[C@@H](C)[C@@](O)(O2)C(=O)C(=O)N2CCCC[C@H]2C(=O)O[C@H]([C@H](C)C[C@@H]2CC[C@@H](OC(=O)NCCN3CCOCC3)[C@H](OC)C2)CC(=O)[C@H](C)/C=C(\C)[C@@H](O)[C@@H](OC)C(=O)[C@H](C)C[C@H](C)/C=C/C=C/C=C/1C [Example 16, 42-O-(2-Morpholinoethylaminocarbonyl)-rapamycin]
240 nM	CO[C@H]1C[C@@H]2CC[C@@H](C)[C@@](O)(O2)C(=O)C(=O)N2CCCC[C@H]2C(=O)O[C@H]([C@H](C)C[C@@H]2CC[C@@H](OC(=O)CN(CCO)CCO)[C@H](OC)C2)CC(=O)[C@H](C)/C=C(\C)[C@@H](O)[C@@H](OC)C(=O)[C@H](C)C[C@H](C)/C=C/C=C/C=C/1C [Example 14, 42-O-[2-(Bis(2-hydroxyethyl)amino)acetyl]-rapamycin]
2500 nM	CO[C@H]1C[C@@H]2CC[C@@H](C)[C@@](O)(O2)C(=O)C(=O)N2CCCC[C@H]2C(=O)O[C@H]([C@H](C)C[C@@H]2CC[C@@H](OC(=O)N3CCN(C)CC3)[C@H](OC)C2)CC(=O)[C@H](C)/C=C(\C)[C@@H](O)[C@@H](OC)C(=O)[C@H](C)C[C@H](C)/C=C/C=C/C=C/1C [Example 6, 42-O-[4-Methylpiperazine-1-carboxy]-rapamycin]
210 nM	CO[C@H]1C[C@@H]2CC[C@@H](C)[C@@](O)(O2)C(=O)C(=O)N2CCCC[C@H]2C(=O)O[C@H]([C@H](C)C[C@@H]2CC[C@@H](OC(=O)N3CCC(O)CC3)[C@H](OC)C2)CC(=O)[C@H](C)/C=C(\C)[C@@H](O)[C@@H](OC)C(=O)[C@H](C)C[C@H](C)/C=C/C=C/C=C/1C [Example 15]
1 nM	CO[C@H]1C[C@@H]2CC[C@@H](C)[C@@](O)(O2)C(=O)C(=O)N2CCCC[C@H]2C(=O)O[C@H]([C@H](C)C[C@@H]2CC[C@@H](OC(=O)NS(=O)(=O)Nc3ccc(O)cc3)[C@H](OC)C2)CC(=O)[C@H](C)/C=C(\C)[C@@H](O)[C@@H](OC)C(=O)[C@H](C)C[C@H](C)/C=C/C=C/C=C/1C [Example 5, 42-O-[4-Hydroxyanilinsulfonylcarbamyl]-rapamycin]
30 nM	CO[C@H]1C[C@@H]2CC[C@@H](C)[C@@](O)(O2)C(=O)C(=O)N2CCCC[C@H]2C(=O)O[C@H]([C@H](C)C[C@@H]2CC[C@@H](OC(=O)NS(=O)(=O)N(C)C)[C@H](OC)C2)CC(=O)[C@H](C)/C=C(\C)[C@@H](O)[C@@H](OC)C(=O)[C@H](C)C[C@H](C)/C=C/C=C/C=C/1C [Example 2, 42-O-[Dimethylaminosulfonylcarbamyl]-rapamycin]
